The results in this text go back to article PMC6879560, “Functional annotation of serine hydrolases in the asexual erythrocytic stage of Plasmodium falciparum” (Scientific Reports, 2019).

For this experiment, the target named is T1, Prodrug activation and resistance esterase (PfPARE) (Plasmodium falciparum, UniProt Q8IBZ2).
T1 construct: gene PF3D7_0709700; native 37 kDa species in saponin-isolated parasite lysate; also confirmed with endogenous C-terminal YFP fusion
Put plainly: gel-based competitive ABPP with TAMRA-FP in parasite lysate; identity confirmed by YFP-tag shift. The class given is biochemical.

T1 sequence (Q8IBZ2 entry or part of it): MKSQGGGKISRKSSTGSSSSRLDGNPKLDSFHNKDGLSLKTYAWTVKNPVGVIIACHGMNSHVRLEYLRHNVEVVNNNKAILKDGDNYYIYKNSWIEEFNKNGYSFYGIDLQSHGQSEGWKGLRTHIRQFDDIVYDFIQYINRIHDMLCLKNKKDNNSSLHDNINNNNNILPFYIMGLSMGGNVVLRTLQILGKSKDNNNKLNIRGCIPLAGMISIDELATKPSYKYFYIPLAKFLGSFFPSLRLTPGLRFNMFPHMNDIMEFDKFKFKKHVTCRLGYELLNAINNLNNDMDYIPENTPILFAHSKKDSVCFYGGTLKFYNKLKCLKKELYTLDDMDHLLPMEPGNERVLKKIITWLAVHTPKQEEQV

`O=C(OC(C(F)(F)F)C(F)(F)F)N1CCN(Cc2cccc(Oc3ccccc3)c2)CC1` [JW642]: the IC50 came to 2.5 ± 0.6 nM.
